In patent publication EP0068408A1 (priority 1981, dated 1983):
≈ marks a conversion by molar mass, not a printed value. Read-outs that look alike come from different tables or passages of the source.

Legend:
[1] = Acute toxicity in mice (LD50); assay type: in vivo; settings: ddY male mice, suspended in 5% Arabic gum solution, observed for 7 days; for LD50 at 168 h: mouse, in vivo
Experimental: Experimental Example 7: Acute Toxicity in Mice
Each compound of the invention was suspended in 5% Arabic gum solution and given orally (p.o.) or intraperitoneally (i.p.) to groups of ten ddY male mice weighed from 24 to 26 g at the dosage volume of 10 ml/kg. […] LD50 was determined according to the method of Wilcoxon and Litchfield.

influenza virus A/WSN = assay: animal or person; assay type: in vivo, mice; settings: in Mus musculus, 360 h, read-out: Survival rate
influenza virus B/GL = assay: animal or person; assay type: in vivo, mice; settings: for responders at 100 mg/kg / responders at 300 mg/kg / responders at 30 mg/kg: unidentified influenza virus, in Mus musculus, po, 360 h, read-out: Survival rate; for survival rates of the treated groups as compared with the control: result in words, Table 7
coxsackie virus B1 = test system: coxsackie virus B1; set-up: species or system mice; settings: mouse, in vivo, po
[2] = test system: parainfluenza virus type 3; set-up: species or system mice; settings: mouse, in vivo, po
ECHO = assay: microbe, parasite or virus in culture; assay type: cell-based
Rhino = assay: microbe, parasite or virus in culture; assay type: cell-based
Influenza A1 = assay: microbe, parasite or virus in culture; assay type: cell-based
Influenza A0 = assay: microbe, parasite or virus in culture; assay type: cell-based; settings: virus A = Influenza A0, MDCK, Vero and HEL cells, 2 or 3 days
Coxsackie Type B5 = assay: microbe, parasite or virus in culture; assay type: cell-based; settings: virus G = Coxsackie Type B5
Parainfluenza Type 3 = assay: microbe, parasite or virus in culture; assay type: cell-based; settings: virus E = Parainfluenza Type 3
Influenza B = assay: microbe, parasite or virus in culture; assay type: cell-based
influenza A0 virus = assay: animal or person; assay type: in vivo, mice; settings: Mus musculus, 360 h, twice a day for 14 days, survivors at 15th day, read-out: Survival rate; for responders at 300 mg/kg: oral; for responders at 100 mg/kg: ip, intraperitoneal
[3] = ip, i.p., read-out: LD50 value, Intraperitoneal administration
[4] = po, p.o., read-out: LD50 value, Oral administration

Row | SMILES | LD50 at 168 h [1, 3] [mg/kg] | LD50 at 168 h [1, 4] [mg/kg] | responders at 100 mg/kg (influenza virus A/WSN; po) [%] | responders at 100 mg/kg (influenza virus B/GL) [%] | responders at 300 mg/kg (influenza virus B/GL) [%] | MIC (ECHO) [µg/mL] | MIC (Rhino) [µg/mL] | MIC (Influenza A1) [µg/mL] | MIC (Influenza A0) [µg/mL] | MIC (Coxsackie Type B5) [µg/mL] | MIC (Parainfluenza Type 3) [µg/mL] | MIC (Influenza B) [µg/mL] | responders at 300 mg/kg (influenza A0 virus) [%] | responders at 100 mg/kg (influenza A0 virus) [%] | further results
1 | CCCOC(=O)c1cc(S(N)(=O)=O)c(Cl)cc1Cl [Compound 33] | > 1000 | > 3000 | 50 | 40 | 50 |  |  |  |  |  |  |  |  |  | responders at 30 mg/kg (influenza virus A/WSN; ip): 40%; responders at 100 mg/kg (influenza virus A/WSN; ip): 50%; responders at 300 mg/kg (influenza virus A/WSN; po): 60%
2 | CCCCCCCCOC(=O)c1cc(S(N)(=O)=O)c(Cl)cc1Cl [Compound 37] | > 1000 | > 3000 | 70 | 80 |  |  |  |  |  |  |  |  |  |  | Survival rate (coxsackie virus B1; 300 mg/kg): 50%; Survival rate (coxsackie virus B1; 1000 mg/kg): 80%; responders at 10 mg/kg (influenza virus A/WSN): 50%; responders at 30 mg/kg (influenza virus A/WSN; ip): 60%; responders at 30 mg/kg (influenza virus A/WSN; po): 50%; survival rates of the treated groups as compared with the control (influenza virus B/GL): extremely excellent activity; responders at 30 mg/kg (influenza virus B/GL): 50%; Survival rate ([2]; 30 mg/kg): 40%; Survival rate ([2]; 100 mg/kg): 70%
3 | COC(=O)c1cc(S(N)(=O)=O)c(Cl)cc1F [Compound 41] | > 1000 | > 3000 |  | 30 | 50 |  |  |  |  |  |  |  |  |  | responders at 30 mg/kg (influenza virus A/WSN; ip): 30%; responders at 100 mg/kg (influenza virus A/WSN; ip): 50%
4 | COC(=O)c1cc(S(N)(=O)=O)c(Cl)cc1Cl [Compound 31] | > 1000 | > 3000 | 40 | 40 | 50 |  |  |  |  |  |  |  |  |  | responders at 300 mg/kg (influenza virus A/WSN; po): 50%
5 | CCCCOC(=O)c1cc(S(N)(=O)=O)c(Cl)cc1Cl [Compound 35] | > 1000 | > 3000 | 60 | 60 |  |  |  |  |  |  |  |  |  |  | Survival rate (coxsackie virus B1; 300 mg/kg): 40%; Survival rate (coxsackie virus B1; 1000 mg/kg): 80%; responders at 30 mg/kg (influenza virus A/WSN; po): 40%; survival rates of the treated groups as compared with the control (influenza virus B/GL): extremely excellent activity; responders at 30 mg/kg (influenza virus B/GL): 40%; Survival rate ([2]; 30 mg/kg): 30%; Survival rate ([2]; 100 mg/kg): 60%
6 | CCCCOC(=O)c1ccc(Br)c(S(N)(=O)=O)c1 [Compound 30] |  |  |  |  | 70 |  |  |  |  |  |  |  |  |  | LD50 value, Intraperitoneal administration ([1]; i.p.): >1,000 mg/kg; LD50 value, Oral administration ([1]; p.o.): >3,000 mg/kg; Survival rate (coxsackie virus B1; 300 mg/kg): 40%; Survival rate (coxsackie virus B1; 1000 mg/kg): 70%; survival rates of the treated groups as compared with the control (influenza virus B/GL): extremely excellent activity; responders at 30 mg/kg (influenza virus B/GL): 60%; Survival rate ([2]; 30 mg/kg): 40%; Survival rate ([2]; 100 mg/kg): 60%
7 | CONS(=O)(=O)c1cc(C(=O)O)ccc1Cl [Compound 4] | > 1000 | > 3000 |  |  |  | 300 (≈ 1130 µM) | 300 (≈ 1130 µM) | 300 (≈ 1130 µM) | 30 (≈ 113 µM) | 300 (≈ 1130 µM) | 300 (≈ 1130 µM) | 100 (≈ 376 µM) | 40 | 50 | 
8 | NS(=O)(=O)c1cc(C(=O)O)c(Cl)cc1F [Compound 17] | > 1000 | > 3000 |  |  |  | 300 (≈ 1180 µM) | 300 (≈ 1180 µM) | 300 (≈ 1180 µM) | 30 (≈ 118 µM) | 300 (≈ 1180 µM) | 300 (≈ 1180 µM) | 300 (≈ 1180 µM) | 40 | 40 | 
9 | CC(C)OC(=O)c1ccc(Br)c(S(N)(=O)=O)c1 [Compound 29] |  |  |  | 30 | 40 |  |  |  |  |  |  |  |  |  | LD50 value, Intraperitoneal administration ([1]; i.p.): >1,000 mg/kg; LD50 value, Oral administration ([1]; p.o.): >3,000 mg/kg
10 | N=C(N)NS(=O)(=O)c1cc(C(=O)O)c(Cl)cc1Cl [Compound 21] | 987 | > 3000 |  |  |  | 300 (≈ 961 µM) | 100 (≈ 320 µM) | 300 (≈ 961 µM) | 100 (≈ 320 µM) | 300 (≈ 961 µM) | 300 (≈ 961 µM) | 300 (≈ 961 µM) | 50 | 40 | 
11 | NS(=O)(=O)c1ccc(Cl)cc1C(=O)O [Compound 27] | > 1000 | > 3000 |  |  |  | 300 (≈ 1270 µM) | 100 (≈ 424 µM) | 300 (≈ 1270 µM) | 30 (≈ 127 µM) | 300 (≈ 1270 µM) | 300 (≈ 1270 µM) | 100 (≈ 424 µM) | 40 | 40 | 
12 | NS(=O)(=O)c1cc(Br)cc(C(=O)O)c1 [Compound 26] | > 1000 | > 3000 |  |  |  | 100 (≈ 357 µM) | 300 (≈ 1070 µM) | 300 (≈ 1070 µM) | 30 (≈ 107 µM) | 300 (≈ 1070 µM) | 300 (≈ 1070 µM) | 300 (≈ 1070 µM) | 50 | 40 | 
13 | Nc1cc(Cl)c(S(N)(=O)=O)cc1C(=O)O [Compound 14] | > 1000 | > 3000 |  |  |  | 300 (≈ 1200 µM) | 300 (≈ 1200 µM) | 100 (≈ 399 µM) | 30 (≈ 120 µM) | 300 (≈ 1200 µM) | 300 (≈ 1200 µM) | 300 (≈ 1200 µM) | 50 | 40 | 
